# According to patent US20150258129A1, “Method for Increasing the Activity of Lysosomal Enzymes” (Mount Sinai School of Medicine of New York University, priority 1998, published 2015):
# Residue numbers refer to the chain shown, from its start.
# Columns and labels:
# [1] = target: T1, glucocerebrosidase (β-Glu), L444P/L444P (Homo sapiens, UniProt P04062, L483P); assay: Intracellular enhancement of β-Glu activity in Gaucher fibroblasts (L444P/L444P); type: cell-based; conditions: 10 μM, 5 days
# T1 construct: endogenous in cells; host or cells: human Gaucher patient fibroblasts, genotype L444P/L444P
# T1 sequence (P04062 40-536 L483P): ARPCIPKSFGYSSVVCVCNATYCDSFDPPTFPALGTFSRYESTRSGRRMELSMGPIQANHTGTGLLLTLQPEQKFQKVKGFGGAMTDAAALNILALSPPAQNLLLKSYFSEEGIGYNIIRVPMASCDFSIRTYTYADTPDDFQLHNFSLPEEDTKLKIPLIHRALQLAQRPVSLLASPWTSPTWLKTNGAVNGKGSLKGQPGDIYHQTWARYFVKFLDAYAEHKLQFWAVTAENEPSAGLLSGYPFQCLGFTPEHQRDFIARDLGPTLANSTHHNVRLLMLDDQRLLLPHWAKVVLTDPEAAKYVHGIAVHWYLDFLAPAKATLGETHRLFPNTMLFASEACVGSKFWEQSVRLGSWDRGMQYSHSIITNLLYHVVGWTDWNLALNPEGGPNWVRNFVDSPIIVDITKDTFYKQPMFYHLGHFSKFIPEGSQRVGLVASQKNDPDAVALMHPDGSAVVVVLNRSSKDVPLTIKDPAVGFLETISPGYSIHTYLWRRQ
# [2] = target: T2, human lysosomal α-Gal A (Homo sapiens, UniProt P06280); assay: In vitro inhibition of α-Gal A (recombinant, expressed in Sf-9 insect cells); type: biochemical
# T2 construct: made in house; host or cells: Sf-9 insect cells, recombinant baculovirus
# T2 sequence (P06280 32-429): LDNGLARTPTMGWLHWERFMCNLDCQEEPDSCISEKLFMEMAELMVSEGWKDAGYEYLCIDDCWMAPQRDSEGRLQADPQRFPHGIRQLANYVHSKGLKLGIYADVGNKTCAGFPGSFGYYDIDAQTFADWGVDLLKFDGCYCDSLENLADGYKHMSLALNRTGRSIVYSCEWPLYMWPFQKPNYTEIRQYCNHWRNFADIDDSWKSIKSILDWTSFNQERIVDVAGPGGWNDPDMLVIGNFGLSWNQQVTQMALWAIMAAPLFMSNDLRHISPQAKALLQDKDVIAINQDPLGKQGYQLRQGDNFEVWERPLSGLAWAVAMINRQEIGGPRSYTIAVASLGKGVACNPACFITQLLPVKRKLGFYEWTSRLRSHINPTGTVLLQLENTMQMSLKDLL
# [3] = target: coffee bean α-galactosidase (Coffea arabica, UniProt Q42656); conditions: cited from earlier work
# [4] = target: T3, mutant α-Gal A (R301Q) (Homo sapiens, UniProt P06280, R301Q); assay: Intracellular enhancement of α-Gal A activity in Fabry lymphoblasts; type: cell-based; parameters: endogenous in cells; host or cells: Epstein-Barr virus-transformed lymphoblasts from a Fabry patient (R301Q); conditions: for intracellular α-Gal A activity in Fabry lymphoblasts (summary): concentration ranges of 10-1000 μM; for α-Gal A activity in R301Q lymphoblasts with increasing concentration of calystegine compound: range 100-1000 μM, FIG. 6
# T3 sequence (P06280 32-429 R301Q): T2 sequence (P06280 32-429) with R270Q
# Protocol: FIG. 4B depicts results in which each inhibitor was added to the culture medium of R301Q lymphoblasts at a concentration of 100 μM. Cells were subsequently incubated for 4 days. After being washed twice with phosphate-buffered saline, the intracellular enzyme activity was determined with 4-MU-α-Gal as the substrate.
# R301Q lymphoblasts were cultured with DGJ (4) ([…]), α-allo-HNJ (9) (▪), α-galacto-HNJ (10) (▴), or β-1-C-butyl-DGJ (16) (♦) at 1-1000 μM for 4 days before being collected for enzyme assay.
# In FIG. 6B, R301Q lymphoblasts were cultured with calystegine B2 (18) and the results are shown therein. In FIG. 6C, R301Q lymphoblasts were cultured with N-methyl calystegine A3 (19) and the results are shown therein. In FIG. 6D R301Q lymphoblasts were cultured with N-methyl calystegine B2 (20) at 100-1000 μM for 4 days before being collected for enzyme assay and the results are shown therein.
# (§1) The Epstein-Barr virus-transformed lymphoblast lines from a normal adult and a Fabry patient with R301Q mutation in α-Gal A (38) were cultured in RPMI-1640 medium (Nissui Pharmaceutical Co., Tokyo, Japan) supplemented with 10% fetal calf serum (FCS) at 37° C. under 5% CO2. Human fibroblasts from Gaucher and GM1-gangliosidosis patients were cultured in McCoy 5A medium supplemented with 10% FCS at 37° C. under 5% CO2.
# Cells were cultured in the presence or absence of inhibitor for 4 days. After being washed twice with phosphate-buffered saline (PBS), the cells were harvested and homogenized in 200 μl of H2O, and 10 μl of the supernatant obtained by centrifugation at 10,000 g was incubated at 37° C. with 50 μl of the substrate solution composed by 6 mM 4-methylumbelliferyl α-D-galactoside (4-MU-α-Gal) and 90 mM N-acetylgalactosamine in 0.1 M citrate buffer (pH 4.5) for enzyme assay. One unit of intracellular enzyme activity was defined as one nmol of 4-methylumbelliferone released per hour at 37° C.
# [5] = target: human β-glucocerebrosidase (Homo sapiens, UniProt P04062); assay: In vitro inhibition of human β-glucocerebrosidase; type: biochemical; conditions: 0.1M citrate buffer (pH 5.2), 4-MU-β-Glu as substrate
# [6] = target: T4, glucocerebrosidase (β-Glu), N370S/N370S (Homo sapiens, UniProt P04062, N409S); assay: Intracellular enhancement of β-Glu activity in Gaucher fibroblasts (N370S/N370S); type: cell-based; conditions: concentration ranges of 0.05-100 μM
# T4 construct: endogenous in cells; host or cells: human Gaucher patient fibroblasts, genotype N370S/N370S
# T4 sequence (P04062 40-536 N409S): T1 sequence (P04062 40-536 L483P) with N370S, P444L
# [7] = system: lysosomal acid β-galactosidase (β-Gal); assay: Intracellular enhancement of β-Gal activity in GM1-gangliosidosis fibroblasts; type: cell-based, human
# Protocol: In FIG. 7A, GM1-gangliosidosis fibroblasts were cultured with DGJ (4) at 500 μM for 5 days before being collected for enzyme assay. In FIG. 7B, GM1-gangliosidosis fibroblasts were cultured with 4-epi-isofagomine (21) at 50 μM for 5 days before being collected for enzyme assay. Strains BGF-1 and BGF-6 were diagnosed as infantile type, and all others were juvenile or adult types.
# as §1
# Cells were cultured in the presence or absence of inhibitor for 5 days. After being washed twice with PBS, the cells were harvested and homogenized in 200 μl of H2O, and 10 μl of the supernatant obtained by centrifugation at 10,000 g was incubated at 37° C. with 50 μl of the substrate solution of 1 mM 4-methylumbelliferyl β-D-galactoside (4-MU-β-Gal) in 0.1 M citrate buffer (pH 4.5) for enzyme assay. One unit of intracellular enzyme activity was defined as one nmol of 4-methylumbelliferone released per hour at 37° C.
# human β-glucocerebrosidase, sequence (P04062 40-536): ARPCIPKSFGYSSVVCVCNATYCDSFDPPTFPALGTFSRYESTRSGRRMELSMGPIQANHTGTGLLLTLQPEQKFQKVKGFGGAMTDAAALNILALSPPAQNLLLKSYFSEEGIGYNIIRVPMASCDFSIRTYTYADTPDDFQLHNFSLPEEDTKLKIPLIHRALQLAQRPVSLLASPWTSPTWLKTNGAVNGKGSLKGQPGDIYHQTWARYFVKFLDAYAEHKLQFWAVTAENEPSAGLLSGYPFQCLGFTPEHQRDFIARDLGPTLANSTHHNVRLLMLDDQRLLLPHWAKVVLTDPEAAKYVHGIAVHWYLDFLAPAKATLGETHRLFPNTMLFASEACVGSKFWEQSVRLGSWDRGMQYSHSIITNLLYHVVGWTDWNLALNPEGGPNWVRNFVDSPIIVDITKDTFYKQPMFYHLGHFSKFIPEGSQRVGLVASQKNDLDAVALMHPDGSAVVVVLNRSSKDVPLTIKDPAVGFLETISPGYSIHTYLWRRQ
# coffee bean α-galactosidase, sequence (Q42656 16-378): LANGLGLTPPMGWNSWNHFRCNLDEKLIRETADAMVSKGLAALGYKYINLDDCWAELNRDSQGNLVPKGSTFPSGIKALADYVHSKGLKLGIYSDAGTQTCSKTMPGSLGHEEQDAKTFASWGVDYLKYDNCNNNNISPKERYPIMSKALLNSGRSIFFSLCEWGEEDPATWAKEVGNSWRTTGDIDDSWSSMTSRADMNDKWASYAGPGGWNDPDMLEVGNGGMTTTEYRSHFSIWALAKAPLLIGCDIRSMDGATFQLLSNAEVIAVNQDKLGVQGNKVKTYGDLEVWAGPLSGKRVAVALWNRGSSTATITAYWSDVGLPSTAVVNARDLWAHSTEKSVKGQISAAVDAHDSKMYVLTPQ
Compound,increase of residual β-Glu activity in Gaucher fibroblasts [1] [%],intracellular α-Gal A activity in Fabry lymphoblasts (summary) [4],IC50 [5] [µM],α-Gal A activity in R301Q lymphoblasts with increasing concentration of calystegine compound ([4]; 4 days),other results
O[C@@H]1C[C@]2(O)N[C@H]1C[C@@H](O)[C@@H]2O [calystegine B1],76,–,–,–,–
O[C@@H]1[C@@H](O)[C@H](O)[C@]2(O)C[C@@H](O)[C@H]1N2 [calystegine C1],136,–,–,–,–
"CCCCC1NC(CO)C(O)C(O)C1O (stereo not drawn) [compound 16, β-1-C-Butyl-deoxygalactonojirimycin]",–,effectively increase,–,–,"inhibition mode toward α-Gal A (Lineweaver-Burk plots) [2]: competitive inhibitors; Ki ([2]; p-nitrophenyl-α-D-galactopyranoside as substrate, read-out: Ki for α-Gal A, from the slope of Lineweaver-Burk plots): 16 µM; IC50 ([2]; read-out: IC30 and (Ki)*: IC50 values (inhibitor concentration giving 50% inhibition) for α-Gal A, p-nitrophenyl-α-D-galactopyranoside as substrate, pH 4.5): 24 µM; IC50 [3]: 0.71 µM; increase of α-Gal A enzyme activity in R301Q lymphoblasts ([4]; inhibitor at 100 μM, 4 days): 2.3 fold; enhancement of α-Gal A activity in R301Q lymphoblasts ([4]; inhibitor at 1000 μM, 4 days): 6.3 fold"
"O[C@@H]1C[C@H]2CC[C@](O)(N2)[C@H]1O [compound 17, Calystegine A3]",126,effectively increase,3.1,elevated with increasing concentration,intracellular β-Glu activity in Gaucher fibroblasts (summary) [6]: effectively enhance
"O[C@@H]1[C@@H](O)[C@H](O)[C@]2(O)CC[C@H]1N2 [compound 18, calystegine B2]",230,effectively increase,0.99,elevated with increasing concentration,intracellular β-Glu activity in Gaucher fibroblasts (summary) [6]: effectively enhance
"CN1C2CCC1(O)C(O)C(O)C2O (stereo not shown) [compound 20, N-methyl calystegine B2]",–,effectively increase,320,elevated with increasing concentration,–
"OC[C@H]1CNC[C@@H](O)[C@H]1O [compound 21, 4-epi-isofagomine]",–,–,–,–,"β-Gal enhancement effect in fibroblasts of infant type disease (BGF-1 and BGF-6) ([7]; DGJ 500 μM, 4-epi-isofagomine 50 μM, 5 days): not efficient; intracellular β-Gal activity in GM1-gangliosidosis fibroblasts (summary) ([7]; concentration ranges of 50-500 μM): effectively enhance; intracellular β-Gal activity elevated to, % of normal ([7]; fibroblasts of juvenile and adult types, 5 days, FIG. 7B (50 μM)): 9-53 % of normal"
